The test system of test [1] is sorted Hoxb7-GFP positive E8.75 WD progenitors. The test can be described thus: Maturation culture of sorted E8.75 WD progenitors, marker genes by qRT-PCR. The test is classed as cell-based, mouse. To be noted: Wnt agonist 3 μM and Fgf9 100 ng/mL. On the procedure: For embryonic tissue cultures at E8.75, the region caudal to the heart primordia of 12-15 somite-stage embryos were harvested and Hoxb7-GFP+/Flk1− cells were sorted by FACS. The sorted cells were aggregated in a V-bottom 96-well low cell binding plate at about 1,200 cells per aggregate. It was cultured for the first 24 hours using a medium containing 10 μM Y27632, 0.1 μM retinoic acid, 1 μM CHIR99021, 5 ng/mL human Fgf9 and 10% growth factor reduced Matrigel (“Procedure 5 medium”), then, the spheroids were transferred to “Procedure 6 medium” and “Procedure 7 medium,” and cultured for 24 hours each for differentiation.
(§1) Harvested spheroids or cells were homogenized, and total RNA was isolated using RNeasy Plus Micro Kit (Qiagen), and then a reverse-transcribed with random primers and Superscript III (Invitrogen). Quantitative PCR was carried out using Real-Time PCR system (Takara Bio) and Thunderbird SYBR qPCR Mix (Toyobo). With normalized by β-actin gene, relative mRNA expression levels were analyzed.
As the second procedure, the factors that mature the E8.75WD into the E9.5WD were found as follows. We investigated the factors that trigger maturation of the WD progenitors in the early stage, from embryonic E8.75 to E9.5 stage. At embryonic E8.75 to E9.5 stage, the Hoxb7-GFP positive WD progenitors are first clearly detectable in the anterior body trunk of the embryo (8-10 somite level). […]

Test [2] concerns mouse ES cells. The test is described as follows: Induction of CXCR4+/KIT+ WD progenitors from mouse ES cells, FACS at day 6.25. The test is classed as cell-based. On the procedure:
(§2) ES cells were differentiated in a serum-free medium as follows. The ES cells were dissociated with Accutase™ (ESGRO) and cultured in a serum-free mouse ES cell differentiation medium. The harvested cells were aggregated in a 96-well U-bottom low cell binding plate at 1,000 cells per aggregate to form embryonic bodies (EBs). After 48 hours (day 2), the EBs were dissociated with Accutase and re-aggregated in a serum-free differentiation medium supplemented with 10 ng/mL human activin A (R & D) (Procedure 1). After 24 hours (day 3), the medium was replaced with a medium containing 0.3 ng/mL human Bmp4 (R & D) and 10 μM CHIR 99021 (Procedure 2). After 36 hours (day 4.5), the medium was replaced with procedure 3 medium containing 0.1 μM retinoic acid, 100 ng/mL human Fgf9 and 10 μM SB431542 (Wako). On day 5.5 (24 hours later), the medium was replaced with a medium containing 0.1 μM retinoic acid, 100 ng/mL human Fgf9 and 5 μM CHIR99021 (“Procedure 4 medium”). The differentiation factors of the Hoxb7-GFP ES cell line are shown in the table below together with the differentiation factors of the Osr1-GFP ES cell line.
On day 6.25, the induced spheroids were harvested and dissociated by incubating in 0.25% trypsin/EDTA at 37° C. for 6 minutes. After blocking in normal mouse serum, cell surface marker (CXCR4/KIT) staining was carried out in a buffer containing 1% BSA, 1×HBSS and 0.035% NaHCO3. The FACS-sorted 3,000 Hoxb7-GFP+/CXCR4+/KIT+ cells were aggregated in a V-bottom 96-well low cell binding plate to form spheroids. Subsequently, these were cultured using the above E8.75 embryonic tissue culture conditions.
(§3) Cell aggregates induced from embryonic tissue or mouse ES cells/human iPS cells were dissociated and blocked with normal mouse serum and then cell surface marker staining was carried out in a buffer containing 1% BSA, 1×HBSS and 0.035% NaHCO3. Data analysis was performed with FlowJo software (Treestar).

The test system of test [3] is human iPS cells. The test can be described thus: AIM induction from human iPS cells (procedure 3), AIM marker genes by quantitative analysis at day 4.5. It is filed as cell-based. To be noted: administered at procedure 3, day 4.5. On the procedure:
(§4) Cells were reaggregated at 10,000 cells per aggregate in a V-bottom 96-well low cell binding plate using a medium containing 10 μM Y27632 and 10 ng/mL human activin A and 1 ng/mL human Bmp4 (“Procedure 1 medium”), to form embryonic bodies (EBs). After 24 hours (day 1), the aggregates were transferred to a U-bottom 96-well low cell binding plate containing a medium containing 10 μM CHIR and 1 ng/mL human Bmp4 (“Procedure 2 medium”). After 36 hours (day 2.5), the medium was replaced with a medium containing 0.1 μM retinoic acid, 100 ng/mL human Fgf9, 100 nM LDN193189 and 100 μM SB431542 (“Procedure 3 medium”). On day 4.5, the medium was replaced with a medium containing 0.1 μM retinoic acid, 5 μM CHIR, 100 ng/mL human Fgf9 and 30 nM LDN193189 (“Procedure 4 medium”).
as §1
The induction of WD from human iPS cells was performed as follows. […] This was confirmed by quantitative analysis at day 4.5 and day 6.25, respectively (FIG. 22).

Test [4] has as its system human iPS cells. The test can be described thus: Induction of CXCR4+/KIT+ WD progenitors from human iPS cells, FACS at day 6.25. The test is classed as cell-based. On the procedure: as §4
On day 6.25, the induced spheroids were harvested and dissociated by incubating in 0.25% trypsin/EDTA for 6 minutes at 37° C. After blocking in normal mouse serum, cell surface marker (CXCR4/KIT) staining was carried out in a buffer containing 1% BSA, 1×HBSS and 0.035% NaHCO3. The FACS-sorted 5,000 of CXCR4+/KIT+ cells were seeded in a V-bottom 96-well low cell binding plate and precipitated by the centrifuge (210 G for 4 minutes). The supernatant was replaced with a medium containing 10 μM Y27632, 0.1 μM retinoic acid, 1 μM CHIR, 5 ng/mL human Fgf9, 100 ng/mL human Fgf1, 10 nM LDN193189 and 10% growth factor reduced Matrigel (“Procedure 5 medium”). On day 8.5, the spheroids were transferred to a medium containing 10 μM Y27632, 0.1 μM retinoic acid, 3 μM CHIR, 5 ng/mL human Fgf9, 1 ng/mL human GDNF, 100 ng/mL human Fgf1, 10 nM LDN193189 and 10% growth factor reduced Matrigel (“Procedure 6 medium”). On day 10.5, the spheroids were transferred to a medium containing 10 μM Y27632, 0.1 μM retinoic acid, 3 μM CHIR, 2 ng/mL human GDNF, 100 ng/mL human Fgf1, 10 nM LDN193189 and 10% growth factor reduce Matrigel (“Procedure 7 medium”).
as §3
Next, the optimal time window for inducing anterior or posterior intermediate mesoderm from the nascent mesoderm was examined. Since the nascent mesoderm population is maintained by the high concentrations of Wnt agonists, the incubation period with Wnt agonists was varied and the subsequent differentiation was applied with conditions specific to the UB or metanephric nephron progenitor cell lineage. The induction efficiency of CXCR4+/KIT+ WD progenitor or ITGA8+/PDGFRA− nephron progenitor cell fraction was examined at day 6.25 or day 12, respectively. […]

Test [5] concerns human iPS cell-derived CXCR4+/KIT+ WD progenitors. The test can be described thus: Maturation culture of sorted human iPS cell-derived CXCR4+/KIT+ WD progenitors, mature WD marker genes. The test is classed as cell-based. To be noted: continuous administration in addition to mouse WD maturation cocktails, 10% Matrigel. On the procedure:
On day 6.25, the induced spheroids were harvested and dissociated by incubating in 0.25% trypsin/EDTA for 6 minutes at 37° C. After blocking in normal mouse serum, cell surface marker (CXCR4/KIT) staining was carried out in a buffer containing 1% BSA, 1×HBSS and 0.035% NaHCO3. The FACS-sorted 5,000 of CXCR4+/KIT+ cells were seeded in a V-bottom 96-well low cell binding plate and precipitated by the centrifuge (210 G for 4 minutes). The supernatant was replaced with a medium containing 10 μM Y27632, 0.1 μM retinoic acid, 1 μM CHIR, 5 ng/mL human Fgf9, 100 ng/mL human Fgf1, 10 nM LDN193189 and 10% growth factor reduced Matrigel (“Procedure 5 medium”). On day 8.5, the spheroids were transferred to a medium containing 10 μM Y27632, 0.1 μM retinoic acid, 3 μM CHIR, 5 ng/mL human Fgf9, 1 ng/mL human GDNF, 100 ng/mL human Fgf1, 10 nM LDN193189 and 10% growth factor reduced Matrigel (“Procedure 6 medium”). […]
(§5) Harvested spheroids or cells were homogenized, and total RNA was isolated using RNeasy Plus Micro Kit (Qiagen), and then a reverse-transcribed with random primers and Superscript III (Invitrogen). Quantitative PCR was carried out using Real-Time PCR system (Takara Bio) and Thunderbird SYBR qPCR Mix (Toyobo). With normalized by β-actin gene, relative mRNA expression levels were analyzed. […]

The test system of test [6] is mouse ES cells. The test can be described thus: AIM induction from mouse ES cells (procedure 3), AIM marker expression. The test is classed as cell-based. The conditions noted are these: Fgf9 at high concentrations. On the procedure:
as §2, §1
Next, signaling for the AIM differentiation procedure was hypothesized, which is partially different from that for PIM, based on the gene expression profile minimally conserved, between anterior intermediate mesoderm (AIM) (Osr1+, Pax2+, Pax8+, Emx2+, Lhx1+, Gata3+) and posterior intermediate mesoderm (PIM) (Osr1+, Wtl+, Hoxll+) (Procedure 3 in FIG. 2).

In test [7] the test system is WD sorted from dissociated E9.5 mouse embryos. The test is described as follows: Maturation culture of sorted E9.5 embryonic WD with growth factor combinations, marker genes by qRT-PCR. The test is classed as cell-based. The conditions noted are these: E9.5 WD aggregates, Gdnf added to RA, Wnt agonist and Fgf9. The protocol:
The posterior regions were harvested from the forelimbs of 22-26 somatic-stage embryos for embryonic tissue culture at […]. The harvested tissues were dissociated into single cells by incubating in DMEM/10% FBS containing 1 mg/mL Type XI collagenase for 6 minutes at 37° C., followed by treatment with DNase I and 0.25% trypsin at 37° C. for 6 minutes. After blocking in normal mouse serum, cell surface marker (Flk1) staining was carried out. Hoxb7-GFP+/Flk1− cells sorted by FACS were resuspended in a mouse ES cell differentiation media, and seeded in a V-bottom 96-well low cell binding plate (Sumitomo Bakelite, Co., Ltd., Cat #MS-9096V) so that there were about 1,600 cells per well. After the centrifuge (210 G, 4 min), the supernatant media was replaced with a medium containing 10 μM Y27632 (Wako), 0.1 μM retinoic acid, 3 μM CHIR99021, 5 ng/mL human Fgf9 (R & D), 1 ng/mL human GDNF (R & D) and 10% growth factor reduced Matrigel (BD) (“Procedure 6 medium”). […]
as §5

For the molecule `Cc1c[nH]c(-c2cnc(NCCNc3ccc(C#N)cn3)nc2-c2ccc(Cl)cc2Cl)n1` [CHIR99021, reference compound], the “expression of maturation marker genes (Hnf1b, Wnt9b, Calb1, E-cadherin)” value in test [1] is given as “worked inhibitory”. In addition, in the test on mouse ES cells [2] (procedure 4, removal of the factor from RA, Wnt agonist and Fgf9), the “induction of the CXCR4+/KIT+ population” value is on record as “dramatically reduced the induction of the CXCR4+/KIT+ population”.

In the case of `c1ccc2c(-c3cnn4cc(-c5ccc(N6CCNCC6)cc5)cnc34)ccnc2c1` [LDN, LDN193189, reference compound], in the test with human iPS cells [3], the “AIM marker genes expression” value is given as “greatly enhanced”. For the same molecule, the “induction of CXCR4+/KIT+ WD progenitors” value with human iPS cells [4] (administered at procedure 3, day 6.25) is given as “greatly enhanced”. For the same molecule, in test [5], the “expression of the mature WD marker genes” value is on record as “further enhanced the expression of the mature WD marker genes”.

With `NC(=O)c1ccc(-c2nc(-c3ccc4c(c3)OCO4)c(-c3ccccn3)[nH]2)cc1` [SB431542, reference compound], in the test with mouse ES cells [6], the “induction of AIM markers” value was “enhanced the AIM marker induction”.

Take `CC1=C(/C=C/C(C)=C/C=C/C(C)=C/C(=O)O)C(C)(C)CCC1` [retinoic acid, all trans-retinoic acid, reference compound]: the “induction of AIM markers” value in the test on mouse ES cells [6] is “common inducer for both AIM and PIM induction”.

For “Fgf1: fibroblast cell growth factor, human Fgf1”, in test [5], the “expression of the mature WD marker genes” value is “further enhanced the expression of the mature WD marker genes”.

B1: Gdnf: glial cell line-derived neurotrophic factor, recombinant human GDNF protein (protein, UniProt P39905 78-211, looked up)
Glial cell line-derived …: SPDKQMAVLPRRERNRQAAAANPENSRGKGRRGQRGKNRGCVLTAIHLNVTDLGLGYETKEELIFRYCSGSCDAAETTYDKILKNLSRNRRLVSDKVGQACCRPIAFDDDLSFLDDNLVYHILRKHSAKRCGCI
As to B1, in test [7], the “Wnt11 expression and bud-like structure formation” value was “successfully induced the Wnt11 expression and bud-like structure formation”.

B2: Bmp4: BMP signal pathway active substance, human Bmp4 (R & D) (protein, UniProt P12644 293-408, looked up)
Bone morphogenetic protein 4: SPKHHSQRARKKNKNCRRHSLYVDFSDVGWNDWIVAPPGYQAFYCHGDCPFPLADHLNSTNHAIVQTLVNSVNSSIPKACCVPTELSAISMLYLDEYDKVVLKNYQEMVVEGCGCR
With B2, the “induction of AIM markers” value in the test with mouse ES cells [6] is reported as “inhibitory to the induction of AIM markers”. The “UB induction versus MM induction, concentration dependence” value with mouse ES cells [2] (Bmp4 in procedure 2, activin A in procedure 1) is on record as “maximized at higher Bmp4 concentrations compared to MM”. Further, the “concentration at which WD progenitor induction peaked” value in the test with human iPS cells [4] (epiblast patterning stage (day 0 to day 1), combination of activin A and Bmp4) is given as 1 ng/mL. Besides, in the test on human iPS cells [4] (mesoderm induction/patterning with CHIR, days 1 to 2.5), the “concentration at which UB progenitor cells were most efficiently induced” value was 1 ng/mL.

Values taken from patent publication US20220135940A1, “METHOD FOR PRODUCING KIDNEY STRUCTURE HAVING DENDRITICALLY BRANCHED COLLECTING DUCT FROM PLURIPOTENT STEM CELLS” (NATIONAL UNIVERSITY CORPORATION KUMAMOTO UNIVERSITY, priority 2018, published 2022).
